In test [1] the target is T1, K-Ras G12D (Homo sapiens, UniProt P01116, G12D). The test can be described thus: biochemical.
In test [2] the test system is p-ERK in SW620 cells (K-Ras G12V). The test can be described thus: Phospho-ERK1/2(THR202/TYR204) HTRF assay, SW620. The following applies: Homo sapiens, SW-620, 2 h, 2 hours incubation. Type of test: cell-based.
The target of test [3] is T2, K-Ras WT (Homo sapiens, UniProt P01116). The test can be described thus: SOS1 catalyzed nucleotide exchange assay (GDP form K-Ras), K-Ras WT. Conditions: read-out: K-Ras WT GDP Biochemical Activity (IC50).
T2 sequence (P01116 1-169 isoform P01116-2): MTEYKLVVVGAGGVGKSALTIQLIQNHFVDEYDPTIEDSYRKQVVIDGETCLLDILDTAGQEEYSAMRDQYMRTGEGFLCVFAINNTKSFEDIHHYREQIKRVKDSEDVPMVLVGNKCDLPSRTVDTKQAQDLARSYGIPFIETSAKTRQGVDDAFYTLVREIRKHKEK
Test [4] addresses T3, K-Ras G13D (Homo sapiens, UniProt P01116, G13D). Briefly: biochemical.
Test [5] concerns the target T4, K-Ras G12V (Homo sapiens, UniProt P01116, G12V). Briefly: SOS1 catalyzed nucleotide exchange assay (GDP form K-Ras), K-Ras G12V. Conditions: read-out: K-Ras G12V GDP Biochemical Activity (IC50).
Test [6] addresses T4, K-Ras G12V. Briefly: biochemical.
Test [7] has as its target T3, K-Ras G13D. The test can be described thus: biochemical. The source holds these as a separate data set.
Test [8] has as its system p-ERK in AGS cells (K-Ras G12D). The test can be described thus: Phospho-ERK1/2(THR202/TYR204) HTRF assay, AGS. Type of test: cell-based. Conditions: Homo sapiens, 2 h, 2 hours incubation.
The target in test [9] is T2, K-Ras WT. Briefly: biochemical.
The test system of another test is AGS cells (K-Ras G12D). Briefly: 2D cell growth inhibition assay, AGS. It is filed as cell-based. Conditions: Homo sapiens, 144 h, 6 days, absolute IC50.
The test system of another test is SW620 cells (K-Ras G12V). Briefly: 2D cell growth inhibition assay, SW620. Conditions: Homo sapiens, SW-620, 144 h, 6 days, absolute IC50. It is filed as cell-based.
Test [10] addresses T1, K-Ras G12D. The test can be described thus: biochemical. This is another data set of the same source.
In test [11] the test system is AsPC-1 cells (K-Ras G12D). Briefly: 2D cell growth inhibition assay, AsPC-1. It is filed as cell-based. The following applies: Homo sapiens, ASPC1, 144 h, AsPC-1, K-Ras G12D, 6 days, absolute IC50.
Test [12] concerns NCI-H358 cells (K-Ras G12C).
For test [13], the system named is Capan-2 cells (K-Ras G12V).
Test [14] concerns p-ERK in NCI-H358 cells (K-Ras G12C). The test can be described thus: Phospho-ERK1/2(THR202/TYR204) HTRF assay, NCI-H358. The following applies: Homo sapiens, 2 hours incubation. Type of test: cell-based. In general terms: TR-FRET usually uses a lanthanide donor and a delayed reading to cut background.
A further test deals with MKN-1 cells (K-Ras WT). Briefly: 3D cell growth inhibition assay, MKN-1. Type of test: cell-based. Conditions: Homo sapiens, 144 h, MKN-1, K-Ras WT, 6 days, absolute IC50.
In test [15] the test system is p-ERK in MKN-1 cells (K-Ras WT amplification). The test can be described thus: Phospho-ERK1/2(THR202/TYR204) HTRF assay, MKN-1. Type of test: cell-based. Conditions: Homo sapiens; MKN-1, K-Ras WT, 2 hours incubation.
Test [16] relates to NCI-H747 cells (K-Ras G13D).
Test [17] relates to NCI-H460 cells (K-Ras Q61H). Briefly: 3D cell growth inhibition assay, NCI-H460. The following applies: Homo sapiens, 144 h, 6 days, absolute IC50. It is filed as cell-based.
Test [18] relates to p-ERK in TCC-PAN2 cells (K-Ras G12R). Briefly: Phospho-ERK1/2(THR202/TYR204) HTRF assay, TCC-PAN2. The following applies: 2 hours incubation. It is filed as cell-based.
Test [19] concerns RERF-LC-Ad1 cells (K-Ras G12A).
The test system of test [20] is p-ERK in NCI-H747 cells (K-Ras G13D).
Test [21] deals with TCC-PAN2 cells (K-Ras G12R). The test can be described thus: 3D cell growth inhibition assay, TCC-PAN2. It is filed as cell-based. Conditions: 144 h, 6 days, absolute IC50.
Test [22] concerns p-ERK in NCI-H460 cells (K-Ras Q61H). The test can be described thus: Phospho-ERK1/2(THR202/TYR204) HTRF assay, NCI-H460. The following applies: Homo sapiens, 2 hours incubation. Type of test: cell-based.

Values joined by “and” are separate entries in the source; they are usually repeats but may differ in a detail not shown here. Identical values can stand only once. Like-named read-outs stand apart in the source and are kept apart here.

From patent US20250019377A1 (JACOBIO PHARMACEUTICALS CO., LTD, priority 2021, published 2025) come the findings set out here.

T1 sequence (P01116 1-169 isoform P01116-2 G12D): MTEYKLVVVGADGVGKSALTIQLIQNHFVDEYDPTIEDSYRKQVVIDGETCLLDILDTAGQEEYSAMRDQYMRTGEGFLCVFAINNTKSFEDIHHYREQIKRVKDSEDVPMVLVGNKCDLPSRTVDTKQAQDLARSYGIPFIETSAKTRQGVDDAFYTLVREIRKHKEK
T3 sequence (P01116 1-169 isoform P01116-2 G13D): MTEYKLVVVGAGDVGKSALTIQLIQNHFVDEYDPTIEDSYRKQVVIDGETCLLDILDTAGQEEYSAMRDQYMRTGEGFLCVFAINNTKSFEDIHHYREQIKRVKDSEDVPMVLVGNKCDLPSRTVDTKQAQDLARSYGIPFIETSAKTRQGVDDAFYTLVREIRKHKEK
T4 sequence (P01116 1-169 isoform P01116-2 G12V): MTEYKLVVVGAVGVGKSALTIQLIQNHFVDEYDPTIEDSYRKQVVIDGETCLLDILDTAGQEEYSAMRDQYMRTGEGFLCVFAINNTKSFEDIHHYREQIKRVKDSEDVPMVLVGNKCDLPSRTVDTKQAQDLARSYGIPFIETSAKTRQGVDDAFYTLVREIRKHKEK

As usually defined, the IC50 is the midpoint of a concentration-inhibition curve. On to `C#Cc1c(F)ccc2cc(O)cc(-c3ncc4c(N5CCOCC(C)(OC)C5)nc(OC[C@@]56CCCN5C[C@H](F)C6)nc4c3F)c12` (stereo partly drawn) [Compound 109, 5-ethynyl-6-fluoro-4-(8-fluoro-2-(((2R,7aS)-2-fluorotetrahydro-1H-pyrrolizin-7a(5H)-yl)methoxy)-4-(6-methoxy-6-methyl-1,4-oxazepan-4-yl)pyrido[4,3-d]pyrimidin-7-yl)naphthalen-2-ol], for which the IC50 is 916 nM and 8230 nM against K-Ras G12D [1]; 238 nM in [2]; 14.4 nM and 67.9 nM on K-Ras WT [3]; 29.3 nM against K-Ras G13D [4]; 4.95 nM and 39 nM on K-Ras G12V [5]; 2220 nM and > 10000 nM against K-Ras G12V [6]. Also, the IC50 is more than 100 nM at K-Ras G13D [7], 203 nM in test [8] and 1260 nM against K-Ras WT [9].
As to `C#Cc1c(F)ccc2cc(O)cc(-c3ncc4c(N5CCOCC(C)(O)C5)nc(OC[C@@]56CCCN5C[C@H](F)C6)nc4c3F)c12` (stereo partly drawn) [Compound 23, 4-(7-(8-ethynyl-7-fluoro-3-hydroxynaphthalen-1-yl)-8-fluoro-2-(((2R,7aS)-2-fluorotetrahydro-1H-pyrrolizin-7a(5H)-yl)methoxy)pyrido[4,3-d]pyrimidin-4-yl)-6-methyl-1,4-oxazepan-6-ol trifluoroacetic acid], the half-inhibitory concentration (IC50) on K-Ras G12D [1] is approximately 100 nM; in [2], 138 nM; with AGS cells (K-Ras G12D) it was 40.1 nM; at K-Ras WT [3], 3.18 nM; against K-Ras G13D [4] it was more than 100 nM; in the test with SW620 cells (K-Ras G12V) it was 196 nM. The IC50 was 2.75 nM on K-Ras G12V [5]; 239 nM against K-Ras G12V [6]; more than 100 nM against K-Ras G13D [7]; 33.8 nM in test [8]; 134 nM against K-Ras WT [9]; 1.99 nM at K-Ras G12D [10]. For the same molecule, the 50% inhibitory concentration (IC50) in test [11] amounted to 693 nM.
Consider `Oc1cc2c(c(-c3ncc4c(N5CCCOCC5)nc(OC[C@@]56CCCN5C[C@H](F)C6)nc4c3F)c1)N(CC(F)F)CCC2` [Compound 126, 1-(2,2-difluoroethyl)-8-(8-fluoro-2-(((2R,7aS)-2-fluorotetrahydro-1H-pyrrolizin-7a(5H)-yl)methoxy)-4-(1,4-oxazepan-4-yl)pyrido[4,3-d]pyrimidin-7-yl)-1,2,3,4-tetrahydroquinolin-6-ol], for which the IC50 was more than 1000 nM on K-Ras G12D [1], 84.6 nM on K-Ras G12V [5], more than 1000 nM on K-Ras G12V [6] and 76.7 nM against K-Ras G12D [10].
With `C#Cc1c(F)ccc2cc(O)cc(-c3nc(C#N)c4c(N5CCCOCC5)nc(OC[C@@]56CCCN5C[C@H](F)C6)nc4c3F)c12` [Compound 129, 7-(8-ethynyl-7-fluoro-3-hydroxynaphthalen-1-yl)-8-fluoro-2-(((2R,7aS)-2-fluorotetra-hydro-1H-pyrrolizin-7a(5H)-yl)methoxy)-4-(1,4-oxazepan-4-yl)pyrido[4,3-d] pyrimidine-5-carbonitrile], the IC50 on K-Ras G12D [1] was more than 1000 nM; with AGS cells (K-Ras G12D) it was 521 nM; on K-Ras G12V [5], 19.8 nM; against K-Ras G12V [6], more than 1000 nM; in test [8], 83.1 nM; against K-Ras G12D [10], 9.63 nM. Also, the IC50 in test [11] is 1070 nM.
Take `C#Cc1c(F)ccc2cc(O)cc(-c3nc(OCC)c4c(N5CCCOCC5)nc(OC[C@@]56CCCN5C[C@H](F)C6)nc4c3F)c12` [Compound 66, 4-(5-ethoxy-8-fluoro-2-(((2R,7aS)-2-fluorotetrahydro-1H-pyrrolizin-7a(5H)-yl)methoxy)-4-(1,4-oxazepan-4-yl)pyrido[4,3-d]pyrimidin-7-yl)-5-ethynyl-6-fluoronaphthalen-2-ol]: the IC50 in [2] was found to be 2.74 nM; in [12], 26 nM; in the test on AGS cells (K-Ras G12D) it was 3.86 nM; in test [13], 12.3 nM; in test [14], 3.48 nM; with MKN-1 cells (K-Ras WT) it was 23.9 nM. Also, the IC50 in test [15] stood at 7.81 nM; in [16] it was 10.4 nM; in the test with SW620 cells (K-Ras G12V), 7.33 nM; in test [17], 53.2 nM; in [18] it was 121 nM; in test [19], 26.6 nM. For the same molecule, the IC50 worked out at 1.15 nM in test [8]; 4.41 nM in [20]; 621 nM in [21]; 12.8 nM in test [22]; 50.3 nM in test [11].
Turning to `C#Cc1c(F)ccc2cc(O)cc(-c3nc([S+](C)[O-])c4c(N5CCCOCC5)nc(OC[C@@]56CCCN5C[C@H](F)C6)nc4c3F)c12` (stereo partly drawn) [Compound 127, 5-ethynyl-6-fluoro-4-(8-fluoro-2-(((2R,7aS)-2-fluorotetrahydro-1H-pyrrolizin-7a(5H)-yl)methoxy)-5-(methylsulfinyl)-4-(1,4-oxazepan-4-yl)pyrido[4,3-d]pyrimidin-7-yl)naphthalen-2-ol], the IC50 against K-Ras G12D [1] is more than 1000 nM; on K-Ras G12V [5], 88.5 nM; at K-Ras G12V [6], more than 1000 nM; at K-Ras G12D [10], 93.1 nM.
For the molecule `C#Cc1c(F)ccc2cc(O)cc(-c3ncc4c(N5CCCOC6CC65)nc(OC[C@@]56CCCN5C[C@H](F)C6)nc4c3F)c12` (stereo partly drawn) [Compound 7, 4-(4-(2-oxa-6-azabicyclo[5.1.0]octan-6-yl)-8-fluoro-2-(((2R,7aS)-2-fluorotetrahydro-1H-pyrrolizin-7a(5H)-yl)methoxy)pyrido[4,3-d]pyrimidin-7-yl)-5-ethynyl-6-fluoronaphthalen-2-ol], the half-maximal inhibitory concentration (IC50) amounted to 2.21 nM in [2]; 2.32 nM in test [12]; 0.778 nM in the test on AGS cells (K-Ras G12D); 7.34 nM in test [13]; 1.67 nM in test [14]; 3.46 nM in the test on MKN-1 cells (K-Ras WT). Besides, the 50% inhibitory concentration (IC50) in test [15] worked out at 3.44 nM; in test [16], 3.17 nM; with SW620 cells (K-Ras G12V) it was 1.33 nM; in test [17], 39.8 nM; in test [18], 31 nM; in [19], 5.2 nM. The half-inhibitory concentration (IC50) in [8] is 0.82 nM; in test [20] it was 0.919 nM; in test [21] it was 165 nM; in [22] it was 2.95 nM; in test [11], 12.8 nM.
